Laboratory results: patent publication EP2718307B1, “BETA-HAIRPIN PEPTIDOMIMETICS AS CXC4 ANTAGONISTS” (Polyphor AG, priority 2011, dated 2012)
Read-outs that look alike come from different tables or passages of the source. Bridge positions count the residues as written; N and C are the ends. Square brackets hold non-standard residues; d marks the D form. Peptide text beside a SMILES is read from it. Lys(iPr) = CC(C)NCCCC[C@H](N)C(=O)O; Orn(iPr) = CC(C)NCCC[C@H](N)C(=O)O

Experiments:
[1] = Drug loading calculations via maintenance dose rate (rate of infusion); settings: CLiv-mouse values scaled by 0.127 (GFR human/GFR mouse)
Experimental: The drug load for an implant comprising a peptide of the invention was calculated following the basic principles in pharmacokinetics (see also J. Gabrielsson, D. Weiner, "Pharmacokinetics and Pharmaco-dynamics Data Analysis: Concepts and Applications", 4th edition, Swedish Pharmaceutical Press, Stockholm, Sweden, 2006) whereby the maintainance dose rate (rate of infusion, Rin) can be defined as the rate at which a drug is to be administered to reach a steady state of a certain dose in the plasma. The maintainance dose rate can be expressed using the correlation Rin [g/(h*kg)] = CLiv[L/(h*kg)] x Css,eff [g/L], wherein CLiv is the clearance (i.v. - admin.) and Css,eff the effective concentration of the drug in the plasma at steady state considering an efficacy margin A: Css,eff [g/L] = A x (IC50/fu) x MW [(mol/L)*(g/mol)]. Therefore, the total amount of a drug loaded into an implant providing for a constant effective concentration of that drug in the plasma for a certain period of time in a subject of a certain body weight can be calculated by applying the following correlation: Drugload [g/subject] = Rin [g/(h*kg)] x duration[h] x BW [kg/subject]. [formula]
Further pre-conditions are an efficacy margin of A = 3, a study duration of 672 h (28 days) and a body weight of a human suject of 70 kg. The glomerular filtration rate (GFR) which mainly influences the clearance of the peptides is highly dependent on the species. In general, the GFR of humans is averaged to be 107 mL/(h*kg) compared to the GFR of mouse being 840 mL/(h*kg). Therefore, the CLiv-mouse values indicated in Table 5b were allometrically scaled by 107 mL/(h*kg)/840 mL/(h*kg) = 0.127 before employed in the above described correlations.

CXCR4 receptor = target: T1, CXCR4 receptor (Homo sapiens, UniProt P61073); assay: Chemotactic assay (cell migration assay): response of Namalwa cells to an SDF-1 gradient; assay type: cell-based
T1 construct: Namalwa cells (CXCR4 natively expressing non-adherent cells, ATCC CRL-1432); host or cells: Namalwa cells
T1 sequence (P61073 whole entry): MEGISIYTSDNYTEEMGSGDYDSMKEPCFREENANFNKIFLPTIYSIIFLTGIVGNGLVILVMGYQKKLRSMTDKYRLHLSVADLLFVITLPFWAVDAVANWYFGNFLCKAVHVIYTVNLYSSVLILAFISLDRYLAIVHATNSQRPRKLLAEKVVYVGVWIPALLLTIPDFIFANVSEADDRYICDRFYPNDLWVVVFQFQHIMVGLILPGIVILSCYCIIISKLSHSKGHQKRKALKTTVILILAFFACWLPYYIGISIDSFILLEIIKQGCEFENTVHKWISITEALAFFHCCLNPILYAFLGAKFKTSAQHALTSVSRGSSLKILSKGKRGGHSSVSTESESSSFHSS
Experimental: Namalwa cells (CXCR4 natively expressing non-adherent cells, ATCC CRL-1432) were cultured in RPMI1640 plus 10% FBS, and pen/strept. HELA cells were maintained in RPMI1640 plus 10% FBS, pen/strept and 2 mM L-glutamine. Cos-7 cells were grown in DMEM medium with […] glucose supplemented with 10% FCS, pen/strept and 2 mM L-glutamine. All cell lines were grown at 37 °C at 5% CO2. Cell media, media supplements, PBS-buffer, HEPES, antibiotic/antimycotic, pen/strept, non essential amino acid, L-glutamine, β-mercaptoethanol and sera were purchased from Gibco (Pailsey, UK). All fine chemicals were supplied by Merck (Darmstadt, Germany).
The chemotactic response of Namalwa cells (ATCC CRL-1432) to a gradient of stromal cell-derived factor 1α (SDF-1) was measured using a modified Boyden chamber chemotaxis system (ChemoTx; Neuroprobe). In this system, the upper chamber of each well is separated from the lower chamber containing the chemoattractant SDF-1 by a polycarbonate membrane (5µm pore size). A circular area of that membrane in the region that covers each lower well is enclosed by a hydrophobic mask to retain the cell suspension within this area. The system was prepared by loading the bottom wells with aliquots of […] chemotaxis medium (RPMI 1640 without Phenol red + 0.5% BSA) comprising either appropriate serial dilutions of peptides or no peptide at all in combination with SDF-1 (0.9 nM) or without the chemoattractant. The membrane was placed over the bottom wells, and aliquots of 50 µL of a suspension of Namalwa cells (3.6 x 10^6 cells/mL) in chemotaxis medium, premixed with chemotaxis medium comprising either appropriate serial dilutions of peptides or no peptide at all, was delivered onto each of the hydrophobically limited regions of the upper surface of the membrane. The cells were allowed to migrate into the bottom chamber for 5 h at 37 °C in 5% CO2. After this period, the membrane was removed and its topside was carefully wiped and washed with PBS to eliminate non-migrated cells. Migrated cells were transferred using a "funnel" adaptor to a receiving 96-well plate and the cell number was determined by using the CyQuant™ NF cell proliferation assay (Invitrogen) based on the measurement of cellular DNA content via fluorescent dye binding. Following the manufacturer's directions, 50 µL of CyQuant™ dye reagent/HBSS buffer (1/500 [v/v]) were added to each well of the above mentioned receiving 96-well plate. After incubation for 0.5 h at room temperature the plate was sealed and the fluorescence intensity of each sample was measured by using a Wallac 1420 VICTOR^2™ plate reader (PerkinElmer) with excitation at 485 nm and emission detection at 535 nm. Finally, the data were normalized by using the controls and IC50-values were determined using GraphPad Prism™ (GraphPad) by fitting a logarithmic curve to the averaged datapoints.

[2] = Plasma protein binding (ultrafiltration); assay type: in vitro ADME, human
Experimental: 495 µL aliquots of human plasma (Basler Blutspendedienst) as well as 495 µL aliquots of PBS were placed in individual deepwells of a polypropylene plate (Greiner) and spiked each with 5 µL of 1 mM solutions of peptides in 90% DMSO. After shaking the plate for 2 min at 600 rpm 150 µL aliquots of the plasma/peptide mixtures were transferred in triplicates to the polypropylene filter plate (10 kDa, Millipore) whereas 150 µL aliquots of the PBS/peptide mixtures were transferred either to the individual wells of the filter plate (filtered controls) or directly into the individual wells of the receiving plate (Greiner) (non-filtered controls). The plate sandwich consisting of filter and receiving plate was incubated for 1 h at 37°C and subsequently centrifuged at 3220 g for 2h at 15 °C. The filtrates in the receiving plate were analysed by LC/MS as follows: Column: Waters, XBridge C18, mobile phases: (A) water + 0.1% formic acid and (B) acetonitrile/water, 95/5 (v/v) + 0.1% formic acid, gradient: 5%-100% (B) in 1.8 min, electrospray ionization, MRM detection (triple quadrupole). The peak areas were determined and triplicate values are averaged. The binding is expressed in percent of the filtered and non-filtered controls by 100-(100x T1h/Tctr). Finally the average of these values is calculated.

[3] = Namalwa cells, SDF-1 0.9 nM, migration 5 h, read-out: IC50 [nM] ± SD, CXCR4 receptor

| Compound | CLiv, human (allometric scaled) [1] | IC50 (CXCR4 receptor) | Plasma protein binding [2] | IC50 (CXCR4 receptor; [3]) |
| --- | --- | --- | --- | --- |
| COc1ccc(C[C@@H]2NC(=O)[C@H](Cc3c[nH]cn3)NC(=O)[C@H](Cc3ccc(O)cc3)NC(=O)[C@@H]3CCCN3C(=O)[C@H]3CCCN3C(=O)[C@H](CCCCNC(C)C)NC(=O)[C@H](CCC(N)=O)NC(=O)[C@H](Cc3ccc(O)cc3)NC(=O)[C@@H]3CSSC[C@H](NC2=O)C(=O)N[C@@H](CO)C(=O)N[C@@H](C)C(=O)N[C@H](Cc2ccc(OC)cc2)C(=O)N[C@@H](CCCNC(C)C)C(=O)N[C@@H](CCCNC(=N)N)C(=O)N[C@@H](Cc2ccc(O)cc2)C(=O)N3)cc1 [Ex. 6, cyclo(-Tyr^1-His^2-Tyr(Me)^3-Cys^4-Ser^5-Ala^6-^DTyr(Me)^7-Orn(iPr)^8-Arg^9-Tyr^10-Cys^11-Tyr^12-Gln^13-Lys(iPr)^14-^DPro^15-Pro^16-), disulfide bond between Cys^4 and Cys^11] (cyclo(YHY(Me)CSA[dY](Me)[Orn(iPr)]RYCYQ[Lys(iPr)][dP]P); disulfide 4-11) | 5.18 mL/min/kg | 0.09 ± 0.09 nM | – | – |
| COc1ccc(C[C@@H]2NC(=O)[C@H](Cc3c[nH]cn3)NC(=O)[C@H](Cc3ccc(O)cc3)NC(=O)[C@@H]3CCCN3C(=O)[C@H]3CCCN3C(=O)[C@H](CCCCNC(C)C)NC(=O)[C@H](CCC(N)=O)NC(=O)[C@H](Cc3ccc(O)cc3)NC(=O)[C@@H]3CSSC[C@H](NC2=O)C(=O)N[C@@H](CO)C(=O)N[C@@H](C)C(=O)N2CCC[C@@H]2C(=O)N[C@@H](CCCNC(C)C)C(=O)N[C@@H](CCCNC(=N)N)C(=O)N[C@@H](Cc2ccc(O)cc2)C(=O)N3)cc1 [Ex. 2, cyclo(-Tyr^1-His^2-Tyr(Me)^3-Cys^4-Ser^5-Ala^6-^DPro^7-Orn(iPr)^8-Arg^9-Tyr^10-Cys^11-Tyr^12-Gln^13-Lys(iPr)^14-^DPro^15-Pro^16-), disulfide bond between Cys^4 and Cys^11] (cyclo(YHY(Me)CSA[dP][Orn(iPr)]RYCYQ[Lys(iPr)][dP]P); disulfide 4-11) | 1.4 mL/min/kg | – | 48% | 0.69 ± 0.43 nM |
| CC(C)NCCCC[C@@H]1NC(=O)[C@H](CCC(N)=O)NC(=O)[C@H](Cc2ccc(O)cc2)NC(=O)[C@@H]2CSSC[C@H](NC(=O)[C@H](Cc3ccc(O)cc3)NC(=O)[C@H](Cc3c[nH]cn3)NC(=O)[C@H](Cc3ccc(O)cc3)NC(=O)[C@@H]3CCCN3C(=O)[C@H]3CCCN3C1=O)C(=O)N[C@@H](CO)C(=O)N[C@@H](C)C(=O)N1CCC[C@@H]1C(=O)N[C@@H](CCCNC(C)C)C(=O)N[C@@H](CCCNC(=N)N)C(=O)N[C@@H](Cc1ccc(O)cc1)C(=O)N2 [Ex. 1, cyclo(-Tyr^1-His^2-Tyr^3-Cys^4-Ser^5-Ala^6-^DPro^7-Orn(iPr)^8-Arg^9-Tyr^10-Cys^11-Tyr^12-Gln^13-Lys(iPr)^14-^DPro^15-Pro^16-), disulfide bond between Cys^4 and Cys^11] (cyclo(YHYCSA[dP][Orn(iPr)]RYCYQ[Lys(iPr)][dP]P); disulfide 4-11) | 1.83 mL/min/kg | – | 30% | 0.42 ± 0.1 nM |
| COc1ccc(C[C@H]2NC(=O)[C@H](C)NC(=O)[C@H](CO)NC(=O)[C@@H]3CSSC[C@H](NC(=O)[C@H](Cc4ccc(O)cc4)NC(=O)[C@H](CCCNC(=N)N)NC(=O)[C@H](CCCNC(C)C)NC2=O)C(=O)N[C@@H](Cc2ccc(O)cc2)C(=O)N[C@@H](CCC(N)=O)C(=O)N[C@@H](CCCCNC(C)C)C(=O)N2CCC[C@@H]2C(=O)N2CCC[C@H]2C(=O)N[C@@H](Cc2ccc(O)cc2)C(=O)N[C@@H](Cc2c[nH]cn2)C(=O)N[C@@H](C)C(=O)N3)cc1 [Ex. 4, cyclo(-Tyr^1-His^2-Ala^3-Cys^4-Ser^5-Ala^6-^DTyr(Me)^7-Orn(iPr)^8-Arg^9-Tyr^10-Cys^11-Tyr^12-Gln^13-Lys(iPr)^14-^DPro^15-Pro^16-), disulfide bond between Cys^4 and Cys^11] (cyclo(YHACSA[dY](Me)[Orn(iPr)]RYCYQ[Lys(iPr)][dP]P); disulfide 4-11) | 1.57 mL/min/kg | – | 56% | 0.18 ± 0.09 nM |
